{
  "source": "patent US20220153746A1",
  "about": "“NITROGEN OXIDE-DONATING PDE-5 AND/OR PDE-6 INHIBITOR COMPOUNDS, AND USES THEREOF” (ILDONG PHARMACEUTICAL CO., LTD., priority 2020, published 2022)",
  "test": "PK Phase (Group 2): plasma concentrations and pharmacokinetics of Compound 18 and its metabolite Compound 4 after once daily ocular instillation of Compound 18 nanosuspension for 7 days",
  "type": "in vivo, New Zealand white rabbits",
  "conditions": "male, New Zealand white, rabbit, plasma; for concentration at 8 h / concentration at 24 h: 0.821 mg/kg/day; for Cmax / Tmax / AUC(0-t): topical or ocular, 0.8 mg/kg; for AUC(0-t): read-out: AUC0-24",
  "text": "This example illustrates the procedures and results for the levels of Compound 18 and its metabolite Compound 4 in plasma and ocular tissues of normotensive rabbits following ocular instillation of Compound 18 once daily for 7 consecutive days.\nTwenty five (25) male New Zealand white rabbits were divided into 5 groups of varying amounts of animals per group.\nThe Test article, Compound 18 was formulated as a 2% nanosuspension in DI water containing 0.2% PS80 (polyoxyethylenesorbitan, monooleate (Tween 80)) and 0.4% HPMC (hydroxypropylmethylcellulose) at pH 6.77. Referred to herein as “Compound 18 nanosuspension.”\nThe study consisted of three groups (Groups 1-3) of 19 male rabbits (NZW) that underwent once daily morning ocular installation (1 eyedrop) for 7 consecutive days (Day 0-6). Groups 4-5 each consisted of 3 male rabbits (NZW) that were not dosed.\nBlood samples (1 mL) were collected from the jugular vein at the intervals set out below for each group. The samples were then inverted several times following collection and held on wet ice until centrifuged. Samples were centrifuged within 60 minutes of collection under refrigeration (set at 5° C. for 10 minutes at 2000 g. […]\nPlasma and tissue samples from treated animals (Groups 1-3) were analyzed for Compound 18 and its metabolite Compound 4 concentrations by LC-MS/MS.\nPharmacokinetic analysis was conducted using WinNonlin Version 6.2.1 (Pharsight, Mountain View, Calif.), operating as a validated software system. Noncompartmental analysis was conducted using the extravascular administration model for ocular instillation dosing.\nThe peak plasma concentration, time to achieve peak plasma concentration, half-life, and area under the plasma concentration-time curve (Cmax, Tmax, T1/2, and AUC) were calculated from the PK phase individual animal plasma concentrations for each sampling time/dose group for Compound 18 and its metabolite Compound 4.\nBA Assay: Quantitation Range 0.05 to 100 ng/mL for Compound 18, 0.15 to 100 ng/mL for Compound 4.\nPlasma calibration standards (PLSTD-A) with Compound 18 concentrations ranging from 0.0500 to 100 ng/mL were prepared by spiking control rabbit plasma with appropriate calibration curve spiking solutions (SS-A). PLQC-A samples with concentrations of 0.150, 5.00, 50.0, and 80.0 ng/mL were prepared by spiking control rabbit plasma with appropriate SS-A-QC spiking solutions.\nPlasma calibration standards (PLSTD-B) with Compound 4 concentrations ranging from 0.150 to 100 ng/mL were prepared by spiking control rabbit plasma with appropriate calibration curve spiking solutions (SS-B). PLQC-B samples with concentrations of 0.450, 5.00, 50.0, and 80.0 ng/mL were prepared by spiking control rabbit plasma with appropriate SS-B-QC spiking solutions. PLQC-B-Dil samples at 800 ng/mL were prepared by spiking control rabbit plasma with the SS-B-QC-Dil spiking solution at 16,000 ng/mL, and then diluted 20× with control rabbit plasma prior to extraction.\n1. Thaw plasma standards, plasma QC samples, ocular tissue QC samples, incurred plasma samples and ocular tissue samples (AH/VH) (if applicable) on wet ice. Control plasma can be thawed in tepid water. Vortex before taking aliquots.\n2. Pipet 50 μL of water for Reagent Blank, 50 μL of control plasma for Double Blank and Blank, 50 μL of pre-spiked plasma for Standards and QC samples, 50 μL of incurred plasma samples (if applicable) into a 96 well plate.\n5. Add 200 μL of working internal standard (WIS) solution to all remaining samples.\n6. Seal the plate and vortex for approximately 5 minutes. Centrifuge the plate at 3500 rpm for 10 minutes at ˜4° C.\n7. Transfer ˜200 μL of each sample supernatant into the appropriate wells of a 96 well plate. Submit for LC MS/MS analysis.\nA total of 25 rabbits were used for this study, including 19 treated rabbits and 6 control rabbits. […]",
  "key": {"[1]": {"conditions": "other: ocular instillation (eye drop), Mean of 4 animals, BQL set to 0, read-out: Day 7 Compound 18 Plasma Concentration"}, "[2]": {"conditions": "other: ocular instillation (eye drop), animal 207666, read-out: Day 7 Compound 18 Plasma Concentration"}, "[3]": {"conditions": "other: ocular instillation, 0.8 mg/kg/day, Mean of 4 animals, BQL set to 0, read-out: Day 1 Compound 18 Plasma Concentration"}, "[4]": {"conditions": "other: ocular instillation, 0.8 mg/kg/day, animal 207666, read-out: Day 1 Compound 18 Plasma Concentration"}, "[5]": {"conditions": "other: ocular instillation, 0.8 mg/kg/day, animal 207667, read-out: Day 1 Compound 18 Plasma Concentration"}, "[6]": {"conditions": "Day 1, Compound 18 0.8 mg/kg ocular instillation, Mean, n=4"}, "[7]": {"conditions": "Day 1, Compound 18 0.8 mg/kg ocular instillation, animal 207664"}, "[8]": {"conditions": "Day 1, Compound 18 0.8 mg/kg ocular instillation, animal 207665"}, "[9]": {"conditions": "Day 1, Compound 18 0.8 mg/kg ocular instillation, animal 207666"}, "[10]": {"conditions": "Day 1, Compound 18 0.8 mg/kg ocular instillation, animal 207667"}, "[11]": {"conditions": "Day 7, Compound 18 0.8 mg/kg ocular instillation, Mean, n=4"}, "[12]": {"conditions": "Day 7, Compound 18 0.8 mg/kg ocular instillation, animal 207664"}, "[13]": {"conditions": "Day 7, Compound 18 0.8 mg/kg ocular instillation, animal 207665"}, "[14]": {"conditions": "Day 7, Compound 18 0.8 mg/kg ocular instillation, animal 207666"}, "[15]": {"conditions": "Day 7, Compound 18 0.8 mg/kg ocular instillation, animal 207667"}},
  "note": "Where two headings read alike, the source gives them in different places.",
  "data": [
    {"compound": "CCCc1nn(C)c2c(=O)[nH]c(-c3cc(S(=O)(=O)N4CC(CCCO[N+](=O)[O-])C4)ccc3OCC)nc12", "note": "[Compound 18, 3-(1-((4-ethoxy-3-(1-methyl-7-oxo-3-propyl-6,7-dihydro-1H-pyrazolo[4,3-d]pyrimidin-5-yl)phenyl)sulfonyl)azetidin-3-yl)propyl nitrate]", "values": [
      {"measurement": "concentration at 8 h", "setting": "[1]", "value": 0.0279, "unit": "ng/mL"},
      {"measurement": "concentration at 8 h", "setting": "other: ocular instillation (eye drop), animal 207665, read-out: Day 7 Compound 18 Plasma Concentration", "value": 0.0505, "unit": "ng/mL"},
      {"measurement": "concentration at 8 h", "setting": "[2]", "value": 0.0611, "unit": "ng/mL"},
      {"measurement": "concentration at 24 h", "setting": "other: ocular instillation (eye drop), Mean of 4 animals, BQL set to 0, read-out: Day 1 Compound 18 Plasma Concentration", "value": 0.0171, "unit": "ng/mL"},
      {"measurement": "concentration at 24 h", "setting": "[1]", "value": 0.0401, "unit": "ng/mL"},
      {"measurement": "concentration at 24 h", "setting": "other: ocular instillation (eye drop), animal 207666, read-out: Day 1 Compound 18 Plasma Concentration", "value": 0.0682, "unit": "ng/mL"},
      {"measurement": "concentration at 24 h", "setting": "[2]", "value": 0.0989, "unit": "ng/mL"},
      {"measurement": "concentration at 24 h", "setting": "other: ocular instillation (eye drop), animal 207667, read-out: Day 7 Compound 18 Plasma Concentration", "value": 0.0614, "unit": "ng/mL"},
      {"measurement": "concentration at 0.5 h", "setting": "other: ocular instillation (eye drop), 2 mg/day, animal 207664, read-out: Day 1 Compound 18 Plasma Concentration", "value": 0.0863, "unit": "ng/mL"},
      {"measurement": "concentration at 0.5 h", "setting": "[3]", "value": 0.161, "unit": "ng/mL"},
      {"measurement": "concentration at 0.5 h", "setting": "other: ocular instillation, 0.8 mg/kg/day, animal 207665, read-out: Day 1 Compound 18 Plasma Concentration", "value": 0.0721, "unit": "ng/mL"},
      {"measurement": "concentration at 0.5 h", "setting": "[4]", "value": 0.313, "unit": "ng/mL"},
      {"measurement": "concentration at 0.5 h", "setting": "[5]", "value": 0.171, "unit": "ng/mL"},
      {"measurement": "concentration at 1 h", "setting": "[3]", "value": 0.0601, "unit": "ng/mL"},
      {"measurement": "concentration at 1 h", "setting": "[4]", "value": 0.183, "unit": "ng/mL"},
      {"measurement": "concentration at 1 h", "setting": "[5]", "value": 0.0575, "unit": "ng/mL"},
      {"measurement": "Cmax", "setting": "[6]", "value": "0.161 ± 0.111", "unit": "ng/mL"},
      {"measurement": "Tmax", "setting": "[6]", "value": 30, "unit": "min"},
      {"measurement": "AUC(0-t)", "setting": "[6]", "value": "0.311 ± 0.488", "unit": "ng·h/mL"},
      {"measurement": "Cmax", "setting": "[7]", "value": 0.0863, "unit": "ng/mL"},
      {"measurement": "Tmax", "setting": "[7]", "value": 30, "unit": "min"},
      {"measurement": "AUC(0-t)", "setting": "[7]", "value": 0.0216, "unit": "ng·h/mL"},
      {"measurement": "Cmax", "setting": "[8]", "value": 0.0721, "unit": "ng/mL"},
      {"measurement": "Tmax", "setting": "[8]", "value": 30, "unit": "min"},
      {"measurement": "AUC(0-t)", "setting": "[8]", "value": 0.018, "unit": "ng·h/mL"},
      {"measurement": "Cmax", "setting": "[9]", "value": 0.313, "unit": "ng/mL"},
      {"measurement": "Tmax", "setting": "[9]", "value": 30, "unit": "min"},
      {"measurement": "AUC(0-t)", "setting": "[9]", "value": 1.04, "unit": "ng·h/mL"},
      {"measurement": "Cmax", "setting": "[10]", "value": 0.171, "unit": "ng/mL"},
      {"measurement": "Tmax", "setting": "[10]", "value": 30, "unit": "min"},
      {"measurement": "AUC(0-t)", "setting": "[10]", "value": 0.17, "unit": "ng·h/mL"},
      {"measurement": "Cmax", "setting": "[11]", "value": "0.17 ± 0.105", "unit": "ng/mL"},
      {"measurement": "Tmax", "setting": "[11]", "value": "156 ± 216", "unit": "min"},
      {"measurement": "AUC(0-t)", "setting": "[11]", "value": "0.754 ± 0.794", "unit": "ng·h/mL"},
      {"measurement": "Cmax", "setting": "[12]", "value": 0.306, "unit": "ng/mL"},
      {"measurement": "Tmax", "setting": "[12]", "value": 60, "unit": "min"},
      {"measurement": "AUC(0-t)", "setting": "[12]", "value": 0.372, "unit": "ng·h/mL"},
      {"measurement": "Cmax", "setting": "[13]", "value": 0.0505, "unit": "ng/mL"},
      {"measurement": "Tmax", "setting": "[13]", "value": 480, "unit": "min"},
      {"measurement": "AUC(0-t)", "setting": "[13]", "value": 0.101, "unit": "ng·h/mL"},
      {"measurement": "Cmax", "setting": "[14]", "value": 0.163, "unit": "ng/mL"},
      {"measurement": "Tmax", "setting": "[14]", "value": 30, "unit": "min"},
      {"measurement": "AUC(0-t)", "setting": "[14]", "value": 1.9, "unit": "ng·h/mL"},
      {"measurement": "Cmax", "setting": "[15]", "value": 0.161, "unit": "ng/mL"},
      {"measurement": "Tmax", "setting": "[15]", "value": 60, "unit": "min"},
      {"measurement": "AUC(0-t)", "setting": "[15]", "value": 0.644, "unit": "ng·h/mL"}
    ]}
  ]
}
